Data as given in patent US20230077362A1 (CORTEVA AGRISCIENCE LLC, priority 2019, published 2023).
Like-named read-outs stand apart in the source and are kept apart here.

Key:
[1] = tested on: Beet Armyworm (Spodoptera exigua) ("BAW"), second instar larvae; experiment: Bioassay on beet armyworm (BAW), 128-well diet tray assay; format: in vivo; settings: for pest or weed control at 50 µg/cm2: Spodoptera exigua; for BAW rating: C = not tested, D = no activity noticed
Procedure, shortened: (§1)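 Sealed trays, 25° C., 14:10 light:dark, 5–7 d. Per-well % mortality recorded, mean of eight wells reported.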

[2] = tested on: Cabbage Looper (Trichoplusia ni) ("CL"), second instar larvae; experiment: Bioassay on cabbage looper (CL), 128-well diet tray assay; format: in vivo; settings: for CL rating: C = not tested, D = no activity noticed
Procedure, shortened: as §1

[3] = read-out: BAW (Biological Results, rating)
[4] = Trichoplusia ni, read-out: CL (Biological Results, rating)
[5] = Trichoplusia ni, read-out: CL rating

Row | SMILES | pest or weed control at 50 µg/cm2 [1, 3] | pest or weed control at 50 µg/cm2 [2, 4] | pest or weed control at 50 µg/cm2 ([1]; read-out: BAW rating) | pest or weed control at 50 µg/cm2 [2, 5] | other results
1 | CC(C)c1ccc(N(C)C)cc1N1C(=O)CS/C1=N\C(=O)Nc1ccc(-c2ncn(-c3ccc(C(F)(F)F)cn3)n2)cc1 [Compound J339] |  |  |  |  | BAW (Biological Results, rating) ([1]; Beet Armyworm (Spodoptera exigua), C = Not Tested): A (50-100); CL (Biological Results, rating) ([2]; Cabbage Looper (Trichoplusia ni), C = Not Tested): A (50-100)
2 | COCc1ccc(C)cc1N1C(=O)CS/C1=N\C(=O)Nc1ccc(-c2ncn(-c3ccc(C(F)(F)F)cn3)n2)cc1F [Compound J298, (Z)-1-(2-Fluoro-4-(1-(5-(trifluoromethyl)pyridin-2-yl)-1H-1,2,4-triazol-3-yl)phenyl)-3-(3-(2-(methoxymethyl)-5-methylphenyl)-4-oxothiazolidin-2-ylidene)urea] | 50 to 100% | 50 to 100% |  |  | 
3 | CC(C)c1cc(N(C)C)ccc1N1C(=O)CS/C1=N\C(=O)Nc1ccc(-c2ncn(-c3ccc(OC(F)(F)F)cc3)n2)cc1F [Compound J112, (Z)-1-(3-(4-(Dimethylamino)-2-isopropylphenyl)-4-oxothiazolidin-2-ylidene)-3-(2-fluoro-4-(1-(4-(trifluoromethoxy)phenyl)-1H-1,2,4-triazol-3-yl)phenyl)urea] | 50 to 100% | 50 to 100% |  |  | 
4 | Cc1ccc(OCCC(F)(F)F)c(N2C(=O)CS/C2=N\C(=O)Nc2ccc(-c3cn(-c4ccc(C(F)(F)F)cn4)cn3)cc2C)c1 [Compound J512, (Z)-1-(3-(5-Methyl-2-(3,3,3-trifluoropropoxy)phenyl)-4-oxothiazolidin-2-ylidene)-3-(2-methyl-4-(1-(5-(trifluoromethyl)pyridin-2-yl)-1H-imidazol-4-yl)phenyl)urea] |  |  | 50 to 100% | 50 to 100% | 
5 | CCN(C(C)=O)c1ccc(C(C)C)c(N2C(=O)CS/C2=N\C(=O)Nc2ccc(-c3ncn(-c4ccc(OC(F)(F)F)cc4)n3)cc2C)c1 [Compound J200, (Z)-N-Ethyl-N-(4-isopropyl-3-(2-(((2-methyl-4-(1-(4-(trifluoromethoxy)phenyl)-1H-1,2,4-triazol-3-yl)phenyl)carbamoyl)imino)-4-oxothiazolidin-3-yl)phenyl)acetamide] | 50 to 100% | 50 to 100% |  |  | 
6 | Cc1ccc(C(F)(F)F)c(N2C(=O)CS/C2=N\C(=O)Nc2ccc(-c3ncn(-c4ccc(OC(F)(F)F)cc4)n3)cc2Cl)c1 [Compound J39, (Z)-1-(2-Chloro-4-(1-(4-(trifluoromethoxy)phenyl)-1H-1,2,4-triazol-3-yl)phenyl)-3-(3-(5-methyl-2-(trifluoromethyl)phenyl)-4-oxothiazolidin-2-ylidene)urea] | 50 to 100% | 50 to 100% |  |  | 
7 | COc1ccc(COCC(F)(F)F)c(N2C(=O)CS/C2=N\C(=O)Nc2ccc(-c3ncn(-c4ccc(OC(F)(F)F)cc4)n3)cc2F)c1 [Compound J564] |  |  |  |  | BAW rating ([1]; Table ABC, species BAW): A (50-100); CL rating ([2]; Table ABC, species CL): A (50-100)
8 | Cc1ccc(COCC(F)(F)F)c(N2C(=O)CS/C2=N\C(=O)Nc2ccc(-c3nc(-c4ccc(OC(F)(F)F)cc4)no3)cc2F)c1 [Compound J427, (Z)-1-(2-Fluoro-4-(3-(4-(trifluoromethoxy)phenyl)-1,2,4-oxadiazol-5-yl)phenyl)-3-(3-(5-methyl-2-((2,2,2-trifluoroethoxy)methyl)phenyl)-4-oxothiazolidin-2-ylidene)urea] |  |  | 50 to 100% | 50 to 100% | 
9 | Cc1ccc(COCC(C)(F)F)c(N2C(=O)CS/C2=N\C(=O)Nc2ccc(-c3ncn(-c4ccc(OC(F)(F)F)cc4)n3)cc2F)c1 [Compound J535] |  |  |  |  | BAW rating ([1]; Table ABC, species BAW): A (50-100); CL rating ([2]; Table ABC, species CL): A (50-100)
10 | Cc1ccc(C(C)C)c(N2C(=O)CS/C2=N\C(=O)Nc2ccc(-c3cn(-c4ccc(OC(F)(F)F)cc4)cn3)cc2C)c1 [Compound J477, (Z)-1-(3-(2-Isopropyl-5-methylphenyl)-4-oxothiazolidin-2-ylidene)-3-(2-methyl-4-(1-(4-(trifluoromethoxy)phenyl)-1H-imidazol-4-yl)phenyl)urea] |  |  | 50 to 100% | 50 to 100% | 
11 | COc1cc(COCC(F)(F)F)c(N2C(=O)CS/C2=N\C(=O)Nc2ccc(-c3ncn(-c4ccc(S(F)(F)(F)(F)F)cc4)n3)cc2F)cc1OC [Compound J561] |  |  |  |  | BAW rating ([1]; Table ABC, species BAW): A (50-100); CL rating ([2]; Table ABC, species CL): A (50-100)
12 | CCCc1ccc(OC)cc1N1C(=O)CS/C1=N\C(=O)Nc1ccc(-c2ncn(-c3ccc(OC(F)(F)F)cc3)n2)cc1F [Compound J43, (Z)-1-(2-Fluoro-4-(1-(4-(trifluoromethoxy)phenyl)-1H-1,2,4-triazol-3-yl)phenyl)-3-(3-(5-methoxy-2-propylphenyl)-4-oxothiazolidin-2-ylidene)urea] | 50 to 100% | 50 to 100% |  |  | 
13 | CN(C)c1ccc(OCC(F)(F)F)c(N2C(=O)CS/C2=N\C(=O)Nc2ccc(-c3ncn(-c4ccc(OC(F)(F)F)cn4)n3)cc2F)c1 [Compound J263, (Z)-1-(3-(5-(Dimethylamino)-2-(2,2,2-trifluoroethoxy)phenyl)-4-oxothiazolidin-2-ylidene)-3-(2-fluoro-4-(1-(5-(trifluoromethoxy)pyridin-2-yl)-1H-1,2,4-triazol-3-yl)phenyl)urea] | 50 to 100% | 50 to 100% |  |  | 
14 | CCC(C)Oc1ccc(C)cc1N1C(=O)CS/C1=N\C(=O)Nc1ccc(-c2ncn(-c3ccc(OC(F)(F)F)cc3)n2)cc1F (stereo not shown) [Compound J51, (Z)-1-(3-(2-(sec-Butoxy)-5-methylphenyl)-4-oxothiazolidin-2-ylidene)-3-(2-fluoro-4-(1-(4-(trifluoromethoxy)phenyl)-1H-1,2,4-triazol-3-yl)phenyl)urea] | 50 to 100% | 50 to 100% |  |  | 
15 | Cc1ccc(COCC(F)(F)F)c(N2C(=O)CS/C2=N\C(=O)Nc2ccc(-c3ccn(-c4ccc(C(F)(F)F)cn4)n3)cc2F)c1 [Compound J308, (Z)-1-(2-Fluoro-4-(1-(5-(trifluoromethyl)pyridin-2-yl)-1H-pyrazol-3-yl)phenyl)-3-(3-(5-methyl-2-((2,2,2-trifluoroethoxy)methyl)phenyl)-4-oxothiazolidin-2-ylidene)urea] | 50 to 100% | 50 to 100% |  |  | 
16 | Cc1ccc(Cc2ccccc2)c(N2C(=O)CS/C2=N\C(=O)Nc2ccc(-c3ncn(-c4ccc(C(F)(F)F)cc4)n3)cc2F)c1 [Compound J562, (Z)-1-(3-(2-Benzyl-5-methylphenyl)-4-oxothiazolidin-2-ylidene)-3-(2-fluoro-4-(1-(4-(trifluoromethyl)phenyl)-1H-1,2,4-triazol-3-yl)phenyl)urea] |  |  | 50 to 100% | 50 to 100% | 
17 | Cc1cc(COCC(F)(F)F)c(N2C(=O)CS/C2=N\C(=O)Nc2ccc(-c3ncn(-c4cccc(OC(F)(F)F)c4)n3)cc2F)cc1C [Compound J738] |  |  |  |  | BAW rating ([1]; Table ABC, species BAW): A (50-100); CL rating ([2]; Table ABC, species CL): A (50-100)
18 | CCOC(C)c1ccc(C)cc1N1C(=O)CS/C1=N\C(=O)Nc1ccc(-c2ncn(-c3ccc(S(F)(F)(F)(F)F)cc3)n2)cc1C(F)(F)F (stereo not shown) [Compound J631, (Z)-1-(3-(2-(1-Ethoxyethyl)-5-methylphenyl)-4-oxothiazolidin-2-ylidene)-3-(4-(1-(4-(pentafluoro-λ^6-sulfaneyl)phenyl)-1H-1,2,4-triazol-3-yl)-2-(trifluoromethyl)phenyl)urea] |  |  | 50 to 100% | 50 to 100% | 
19 | COC(C)c1ccc(C)cc1N1C(=O)CS/C1=N\C(=O)Nc1ccc(-c2noc(-c3ccc(OC(F)(F)F)cc3)n2)cc1F (stereo not shown) [Compound J426, (Z)-1-(2-Fluoro-4-(5-(4-(trifluoromethoxy)phenyl)-1,2,4-oxadiazol-3-yl)phenyl)-3-(3-(2-(1-methoxyethyl)-5-methylphenyl)-4-oxothiazolidin-2-ylidene)urea] |  |  | 50 to 100% | 50 to 100% | 
20 | CC(C)c1ccc(N(C)C)cc1N1C(=O)CS/C1=N\C(=O)Nc1ccc(-c2ncn(-c3ccc(OC(F)(F)F)cn3)n2)cc1C#N [Compound J266, (Z)-1-(2-Cyano-4-(1-(5-(trifluoromethoxy)pyridin-2-yl)-1H-1,2,4-triazol-3-yl)phenyl)-3-(3-(5-(dimethylamino)-2-isopropylphenyl)-4-oxothiazolidin-2-ylidene)urea] | 50 to 100% | 50 to 100% |  |  | 
21 | N#Cc1ccc(OCCC(F)(F)F)c(N2C(=O)CS/C2=N\C(=O)Nc2ccc(-c3ncn(-c4ccc(S(=O)(=O)C(F)(F)F)cc4)n3)cc2F)c1 [Compound J372, (Z)-1-(3-(5-Cyano-2-(3,3,3-trifluoropropoxy)phenyl)-4-oxothiazolidin-2-ylidene)-3-(2-fluoro-4-(1-(4-((trifluoromethyl)sulfonyl)phenyl)-1H-1,2,4-triazol-3-yl)phenyl)urea] |  |  | 50 to 100% | 50 to 100% | 
22 | Cc1cc(C)c(C)c(N2C(=O)CS/C2=N\C(=O)Nc2ccc(-c3ncn(-c4ccc(OC(F)(F)F)cc4)n3)cc2F)c1 [Compound J797, (Z)-1-(2-Fluoro-4-(1-(4-(trifluoromethoxy)phenyl)-1H-1,2,4-triazol-3-yl)phenyl)-3-(4-oxo-3-(2,3,5-trimethylphenyl)thiazolidin-2-ylidene)urea] |  |  |  |  | BAW rating (% control or mortality class) ([1]; Table ABC, species BAW, 128-well diet tray assay, second instar larvae): A (50-100); mortality at 50 µg/cm2 ([2]; Trichoplusia ni, Table ABC, species CL, 128-well diet tray assay, second instar larvae, read-out: CL rating (% control or mortality class)): 50 to 100%
23 | Cc1ccc(Cc2ccccc2)c(N2C(=O)CS/C2=N\C(=O)Nc2ccc(-c3ncn(-c4ccc(OC(F)(F)F)cc4)n3)cc2C)c1 [Compound J456, (Z)-1-(3-(2-Benzyl-5-methylphenyl)-4-oxothiazolidin-2-ylidene)-3-(2-methyl-4-(1-(4-(trifluoromethoxy)phenyl)-1H-1,2,4-triazol-3-yl)phenyl)urea] |  |  | 50 to 100% | 50 to 100% | 
